The target in experiment [1] is T1, Prostaglandin G/H synthase 1 (Homo sapiens, UniProt P23219). As to the kind of experiment: Inhibition of human recombinant COX1 expressed in Sf9 cell microsomes assessed as reduction in conversion of arachidonic acid to PGE2 incubated for 5 mins by HTRF assay. Background: Time-resolved FRET reads energy transfer from a long-lived donor to a nearby acceptor.
Experiment [2] addresses T2, Replicase polyprotein 1ab (Severe acute respiratory syndrome-related coronavirus, UniProt P0C6X7). As to the kind of experiment: Inhibition of SARS coronavirus main proteinase 3C-like protease.
Experiment [3] deals with T1, Prostaglandin G/H synthase 1. As to the kind of experiment: Inhibition of human recombinant COX1 expressed in Sf9 cell microsomes assessed as reduction in conversion of arachidonic acid to PGE2 at 250 uM incubated for 5 mins by HTRF assay.
The target in experiment [4] is T2, Replicase polyprotein 1ab. As to the kind of experiment: Binding affinity to SARS coronavirus main proteinase 3C-like protease.
A further experiment deals with Acetylcholinesterase (Homo sapiens, UniProt P22303). As to the kind of experiment: Inhibition of AChE (unknown origin).
Sequence of Acetylcholinesterase (P22303 whole entry): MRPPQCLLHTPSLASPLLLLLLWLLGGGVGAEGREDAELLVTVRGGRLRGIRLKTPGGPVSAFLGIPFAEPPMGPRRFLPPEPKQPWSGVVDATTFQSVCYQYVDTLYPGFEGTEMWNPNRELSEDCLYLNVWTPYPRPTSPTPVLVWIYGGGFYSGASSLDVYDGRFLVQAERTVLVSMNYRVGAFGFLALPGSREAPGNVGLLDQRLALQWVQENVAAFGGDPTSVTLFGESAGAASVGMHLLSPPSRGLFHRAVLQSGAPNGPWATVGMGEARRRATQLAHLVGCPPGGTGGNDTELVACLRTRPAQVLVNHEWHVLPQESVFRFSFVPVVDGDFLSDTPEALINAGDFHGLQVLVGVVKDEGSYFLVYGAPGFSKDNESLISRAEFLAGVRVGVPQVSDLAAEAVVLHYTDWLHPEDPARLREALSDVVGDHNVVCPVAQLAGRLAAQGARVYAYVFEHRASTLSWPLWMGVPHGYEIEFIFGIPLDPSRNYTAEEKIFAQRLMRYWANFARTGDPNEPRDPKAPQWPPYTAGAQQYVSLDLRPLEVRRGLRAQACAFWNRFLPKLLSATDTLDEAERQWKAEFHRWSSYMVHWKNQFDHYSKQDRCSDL
The next experiment addresses Beta-secretase 1 (Homo sapiens, UniProt P56817). As to the kind of experiment: Inhibition of BACE1 (unknown origin).
The test system of experiment [5] is Mycobacterium tuberculosis. As to the kind of experiment: Antimicrobial activity against Mycobacterium tuberculosis str. Erdman assessed as complete inhibition of growth incubated for 14 days by microplate assay. The experiment is classed as functional. Conditions: Erdman = ATCC 35801, 336 h.
The test system of experiment [6] is Mycobacterium tuberculosis. As to the kind of experiment: Inhibition of Mycobacterium tuberculosis InhA at 80 uM using DD-CoA and NADH.

The structures appear in SMILES notation. Values after ≈ are worked out from the molar mass of the structure shown.

The IC50 is the concentration at which inhibition is half-maximal. As usually defined, the inhibition is the drop in the measured response relative to a control, in per cent. As usually defined, the Ki is a dissociation constant, usually derived from enzyme kinetics or from competition with a known ligand. A lower Ki goes with tighter binding. By MIC99 is commonly meant an inhibitory concentration at the 99% level, which refers to growth in some studies and to a panel of isolates in others.

T1 sequence (P23219 whole entry): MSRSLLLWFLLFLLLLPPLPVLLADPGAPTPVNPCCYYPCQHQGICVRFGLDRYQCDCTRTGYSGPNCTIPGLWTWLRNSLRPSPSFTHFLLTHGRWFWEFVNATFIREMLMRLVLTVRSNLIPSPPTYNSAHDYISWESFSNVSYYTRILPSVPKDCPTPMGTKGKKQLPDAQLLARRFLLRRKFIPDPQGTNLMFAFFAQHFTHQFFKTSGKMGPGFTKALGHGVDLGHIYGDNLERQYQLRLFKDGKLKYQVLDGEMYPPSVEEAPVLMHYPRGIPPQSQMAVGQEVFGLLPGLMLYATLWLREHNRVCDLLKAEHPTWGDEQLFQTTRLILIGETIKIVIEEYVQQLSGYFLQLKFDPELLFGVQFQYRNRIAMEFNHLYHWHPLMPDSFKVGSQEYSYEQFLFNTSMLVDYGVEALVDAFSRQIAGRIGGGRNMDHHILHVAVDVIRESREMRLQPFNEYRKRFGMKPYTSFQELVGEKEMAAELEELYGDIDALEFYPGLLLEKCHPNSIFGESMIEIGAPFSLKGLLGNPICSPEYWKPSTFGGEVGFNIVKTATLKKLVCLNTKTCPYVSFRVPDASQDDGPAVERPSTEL
Sequence of Beta-secretase 1 (P56817 whole entry): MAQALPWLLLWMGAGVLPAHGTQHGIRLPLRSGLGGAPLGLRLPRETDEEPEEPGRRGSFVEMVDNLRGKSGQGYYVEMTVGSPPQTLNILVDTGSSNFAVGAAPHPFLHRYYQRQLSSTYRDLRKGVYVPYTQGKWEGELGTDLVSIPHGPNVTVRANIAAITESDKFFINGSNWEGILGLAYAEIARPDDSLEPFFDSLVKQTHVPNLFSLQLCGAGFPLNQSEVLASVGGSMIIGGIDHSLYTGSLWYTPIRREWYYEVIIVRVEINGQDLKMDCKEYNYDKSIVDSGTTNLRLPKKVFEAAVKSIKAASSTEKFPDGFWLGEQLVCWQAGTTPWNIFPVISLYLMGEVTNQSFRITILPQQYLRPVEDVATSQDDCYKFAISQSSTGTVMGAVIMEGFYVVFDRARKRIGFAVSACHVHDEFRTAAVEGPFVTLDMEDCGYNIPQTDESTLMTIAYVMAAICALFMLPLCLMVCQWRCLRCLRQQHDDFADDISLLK

Take `O=C(O)c1ccccc1O` [SALICYLIC ACID]: the IC50 in experiment [1] is 500 µM. In the case of `CC(=O)N[C@@H](CC(=O)O)C(=O)N[C@@H](CO)C(=O)N[C@H](C(=O)N[C@@H](CC(C)C)C(=O)N[C@H](C=O)CCC(N)=O)[C@@H](C)O`, the IC50 in experiment [2] was determined as 10 µM.

Turning to `CC(=O)N[C@@H](Cc1cnc[nH]1)C(=O)N[C@@H](CO)C(=O)N[C@H](C(=O)N[C@@H](CC(C)C)C(=O)N[C@H](C=O)CCC(N)=O)[C@@H](C)O`, in experiment [2], the IC50 was greater than 50 µM. Regarding `CC(C)(Oc1ccc(Cl)cc1)C(=O)O`, in experiment [3], the inhibition turned out to be 14%. For the compound `CC(=O)N[C@@H](CC(=O)O)C(=O)N[C@@H](CO)C(=O)N[C@@H](Cc1ccccc1)C(=O)N[C@@H](CC(=O)O)C(=O)N[C@@H](CCC(N)=O)C(=O)O`, in experiment [4], the Ki came out at 41 µM. Compound `CC(=O)N[C@@H](CCC(=O)O)C(=O)N[C@@H](CO)C(=O)N[C@H](C(=O)N[C@@H](CC(C)C)C(=O)N[C@H](C=O)CCC(N)=O)[C@@H](C)O` had an IC50 in experiment [2] of 7.5 µM. The same compound returned a Ki in experiment [4] of 8 µM. Compound `Cc1ccc(Nc2nccc(N(C)c3ccc4c(C)n(C)nc4c3)n2)cc1S(N)(=O)=O` [PAZOPANIB] showed an IC50 on Acetylcholinesterase of 0.93 µM. With `Cc1ccc(C)c(OCCCC(C)(C)C(=O)O)c1`, the inhibition in experiment [3] was found to be 18%. For the compound `CC(=O)N[C@@H](CC(N)=O)C(=O)N[C@@H](CO)C(=O)N[C@H](C(=O)N[C@@H](CC(=O)O)C(=O)N[C@H](C=O)CCC(N)=O)[C@@H](C)O`, the IC50 in experiment [2] came to 20 µM. On to `CC(=O)N[C@@H](CC(N)=O)C(=O)N[C@@H](CO)C(=O)N[C@H](C(=O)N[C@@H](CO)C(=O)N[C@H](C=O)CCC(N)=O)[C@@H](C)O`, for which the IC50 in experiment [2] was 7.5 µM. Further, the affinity in experiment [4] corresponds to a Ki of 40 µM.

In turn, `CC(=O)N[C@@H](CC(N)=O)C(=O)N[C@@H](CO)C(=O)N[C@@H](Cc1ccccc1)C(=O)N[C@@H](CO)C(=O)N[C@@H](CCC(N)=O)C(=O)O` had a Ki in experiment [4] of 72 µM. For the compound `COc1cc2ncnc(Nc3ccc(F)c(Cl)c3)c2cc1OCCCN1CCOCC1` [GEFITINIB], on Beta-secretase 1, it took 20 µM to reach half-maximal inhibition (IC50).

With `CCN(CC)C(=O)/C(C#N)=C/c1cc(O)c(O)c([N+](=O)[O-])c1` [ENTACAPONE], in experiment [5], the MIC99 was 260 µM (≈ 79.4 µg/mL). Further, the inhibition in experiment [6] was determined as 47%.

The record behind these values is ChEMBL document CHEMBL3817815, “Impact of Binding Site Comparisons on Medicinal Chemistry and Rational Molecular Design” (J Med Chem, 2016).
